Legend:
[1] = estimated; cited from earlier work
recombinant human sEH = target: T1, recombinant human sEH (Homo sapiens, UniProt P34913); type: biochemical; conditions: relative to compound 1
T1 sequence (P34913 1-555): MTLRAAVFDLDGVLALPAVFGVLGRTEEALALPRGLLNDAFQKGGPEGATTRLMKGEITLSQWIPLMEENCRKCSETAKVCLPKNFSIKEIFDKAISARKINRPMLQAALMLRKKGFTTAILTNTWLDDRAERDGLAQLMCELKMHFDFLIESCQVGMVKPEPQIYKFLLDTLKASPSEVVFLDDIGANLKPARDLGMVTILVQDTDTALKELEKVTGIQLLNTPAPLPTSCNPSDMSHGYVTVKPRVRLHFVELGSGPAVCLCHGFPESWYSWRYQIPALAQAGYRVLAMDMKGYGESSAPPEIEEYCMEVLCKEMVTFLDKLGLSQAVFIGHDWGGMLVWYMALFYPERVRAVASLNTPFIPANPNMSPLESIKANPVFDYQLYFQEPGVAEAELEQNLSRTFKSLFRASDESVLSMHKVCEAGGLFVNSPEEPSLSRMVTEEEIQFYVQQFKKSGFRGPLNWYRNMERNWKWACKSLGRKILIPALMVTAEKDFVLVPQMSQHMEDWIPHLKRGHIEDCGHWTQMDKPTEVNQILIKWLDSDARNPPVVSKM

| decline of sEHi, factor with respect to 1 (recombinant human sEH) | SMILES | in vivo half-life [1] |
| --- | --- | --- |
|  | CCCCC[C@@H]1O[C@@H]1C/C=C\C/C=C\C/C=C\CCCC(=O)O [14,15-EET, cis-14,15-epoxyeicosa-5(Z),8(Z),11(Z)-trienoic acid] | a few seconds to minutes |
| 16 | CCCCCNC(=S)NCCCC/C=C\CCCCCCC(=O)O [Compd 5, 13-(3-n-Pentylthioureido)tridec-8(Z)-enoic acid] |  |
